Assay [1] relates to C. elegans. The assay can be described thus: Toxic effects of compounds on C. elegans (lethality). In kind it is in vivo. To be noted: Caenorhabditis elegans, 48 h, mean ± SD, read-out: Lethality rate (%); for mortality at 500 µg/mL: compound 0.5 mg/mL. As to the method:
In the toxicity analysis, 95 µL of the nematode solution (containing approximately 80 C. elegans) along with 5 µL of each compound was added to a 96-well plate. The final concentration of each compound was 0.5 mg/mL, and chlorpyrifos (20 µg/mL) was used as the positive control. The samples were mixed sufficiently, followed by 48-h incubation of plates under RT, and subsequently, the dead nematodes were counted to determine the lethality rate ([Roh and Choi, 2008]).

Assay [2] concerns C. elegans AChE. Nature of the assay: Determination of IC50 of compounds to AChE (Ellman method, nematode homogenate). In kind it is biochemical. The note with it: 2-h incubation at 37°C, mean ± SD, triplicates, read-out: IC50 of AChE inhibition. As to the method:
Third-instar juvenile stage samples of C. elegans were thoroughly ground using a glass homogenizer. The homogenate was then dissolved in PBS (pH 7.0, which contained 0.1% Triton X-100) using a suitable volume, followed by a 30-min centrifugation at 6000 r/min under 4°C to harvest supernatants to analyze the enzymes ([Ellman et al., 1961]; [Zhao et al., 2018]) [Nematode (3rd instar): 4000 individuals/mL].
After dissolving the eight compounds and chlorpyrifos in acetone, multiple dilutions were made to obtain test concentrations at 5 levels. Thereafter, the test solution of every level (4 µL) was blended with the enzyme solution (96 µL), followed by 2-h incubation at 37°C in a 96-well plate. The final concentrations of compounds were 29.25, 58.50, 117.00, 234.00, and 468.00 µg/mL, respectively. Thereafter, 1.5 mM acetylthiocholine iodide (ATCHI) (50 µL) was added for a further 0.5-h incubation at 37°C. The reaction was finally terminated by adding 0.3 mM 5,5′- dithiobis (2 - nitrobenzoic acid) (DTNB) (50 µL). Afterward, the residual activity of acetylcholinesterase was measured with a microplate reader at 405 nm. Corresponding treatments were then applied to different groups as given below:
The inhibition rate (%) was calculated follows:
I%=[1−(Treatment group−Compound control group)/(Substrate control group−PBS control group)]×100%
On the technique in general: Ellman's reagent forms a yellow product with free thiols.

Assay [3] has as its target nematode AChE. Nature of the assay: Kinetic study on the inhibitory effect of AChE by compound (Lineweaver-Burk and Dixon plots). In kind it is biochemical, C. elegans. On the procedure:
This study prepared the enzyme solution at multiple gradients (0.125, 0.25, 0.5, and 1.0 U/mL). After adding compound 5 (29.25, 58.50, 117.00, 234.00, and 468.00 µg/mL), the mixed sample was then subjected to a 1-h incubation on a 96-well plate at 37°C (the buffer was used as a substitute for the control group). Later, 1.5 mM ATCHI (50 µL) was added and incubated for a 30-min period, followed by an addition of the 0.3 mM DTNB (50 µL). After 30 s, a microplate reader was utilized to record the OD value at 405 nm (five times at 1-min intervals). The change in the OD value every minute was used to calculate the reaction rate (ΔA/min). Later, the reaction rate curve, as a function of enzyme concentration, was plotted to compare reaction rates (v) among diverse test compound levels. Associations between diverse enzyme levels were utilized to evaluate the inhibitory effect of the compound on nematode AChE ([Xiong et al., 2016]).

Here are results for nine molecules from article PMC9950556, “Acetylcholinesterase inhibitory activity of sesquiterpenoids isolated from Laggera pterodonta” (Frontiers in Plant Science, 2023).

“And” between values parts separate entries of the source, which are not always exact repeats. Equal entries are not always repeated. “Also recorded” adds a separate entry of the source. Where only a bound is given, the exact number is not on record here.

One may read the IC50 as the concentration that gives 50% inhibition. Take `CCOP(=S)(OCC)Oc1nc(Cl)c(Cl)cc1Cl` [Chlorpyrifos, chlorpyrifos, reference compound]: the mortality at 20 µg/mL in assay [1] (positive control 20 µg/mL) worked out at 81.7 ± 2.6%. In assay [2], the IC50 is 7.33 ± 0.58 µM.

With `C=C(C(=O)O)C1CCC2=CC(O)CC(C)C2(C)C1` (centres unmarked) [Compound 1, laggeranine A], the mortality at 500 µg/mL in assay [1] was 38.8 ± 2.5%. Besides, in assay [2], the IC50 is < 530 µM and 518 µM.

As for `C=C(C(=O)OCC)[C@@H]1CC[C@@]2(C)CCCC(=C)[C@]2(O)C1` [Compound 2, laggeranine B], the mortality at 500 µg/mL in assay [1] was found to be 31.7 ± 0.72%. In addition, the IC50 in assay [2] is < 710 µM and 701 µM.

In the case of `C=C(C(=O)O)[C@H]1C=C2[C@@H](C)CCC[C@]2(C)CC1` [Compound 3, eudesma-5,12-dien-13-oic acid], in assay [1], the mortality at 500 µg/mL is 60.8 ± 2.6%. The IC50 in assay [2] was determined as 464 ± 10 µM.

As for `C=C(C(=O)O)[C@@H]1CC[C@@]2(C)CCCC(C)=C2C1` [Compound 4, isocostic acid], the mortality at 500 µg/mL in assay [1] amounted to 30.8 ± 1.91%. The IC50 in assay [2] is < 530 µM and 528 µM.

As for `C=C1CCC[C@]2(C)CC[C@@H](C(=C)C(=O)O)CC12` (some centres unmarked) [Compound 5, costic acid], the mortality at 500 µg/mL in assay [1] was found to be 72.9 ± 3.15%. The IC50 in assay [2] turned out to be 437 ± 8.33 µM. Besides, the “Ki (dissociation constant of the enzyme-inhibitor complex)” value in assay [3] (Dixon plot, substrate 3 and 6 mM) amounted to 24.668 µg/mL. Besides, the “type of AChE inhibition” value in assay [3] (enzyme-concentration plot, Lineweaver-Burk and Dixon plots) was “reversible inhibitor; also recorded: mixed-type competitive”.

As to `C=C(C(=O)O)[C@@H]1CC[C@@]2(C)CCC[C@H](C)[C@]2(O)C1` [Compound 6, 5α-hydroxy-4α,15-dihydrocostic acid], the mortality at 500 µg/mL in assay [1] was 48.8 ± 2.5%. The IC50 in assay [2] came to 470 ± 15.6 µM.

Consider `C=C(C(=O)O)[C@@H]1CC[C@@]2(C)CCCC(=C)[C@]2(O)C1` [Compound 7, 5α-hydroxycostic acid], for which, in assay [1], the mortality at 500 µg/mL was found to be 50.8 ± 1.91%. Besides, the IC50 in assay [2] turned out to be 485 ± 11.5 µM.

In the case of `C=C(C(=O)O)[C@@H]1CC[C@@]2(C)CCC(=O)C(C)=C2C1` [Compound 8, 3-oxo-di-nor-eudesma-4-en-11-oic acid], in assay [1], the mortality at 500 µg/mL turned out to be 34.6 ± 1.44%. Also, in assay [2], the IC50 was < 710 µM and 697 µM.
